Patent US8129425B2, “Small organic molecule regulators of cell proliferation” (Curis, Inc., priority 2000, dated 2012)
Entries after “also recorded” stand apart in the source; their conditions may differ.

Assays:
[1] = tested on: cerebellar neuron precursors; experiment: Cerebellar neuron precursor proliferation (3H-thymidine incorporation); type: cell-based, rat; details: for induction of 3H thymidine incorporation: absence of Shh
Procedure: In order to test the efficacy of Hedgehog signaling agonists, the ability of the agonists to stimulate the proliferation of cerebellar neuron precursors was determined. Cerebellar granule neuron precursors are known to respond to Hh protein by proliferating. To test the agonists, cerebellar neurons were dissected out of postnatal (one week) rat brains, and placed into primary cell culture. Treatment agents were added once, on the first day of culture (0 DIV). Cells were left in culture until 2 DIV, when 3H-thymidine was added for 5 hours; the amount of incorporation by the cells of this 3H-thymidine provides a measure of the level of proliferation of the cells. Cells were then lysed, and the incorporation of 3H-thymidine was determined. The positive control was Hh protein, at 1.0 μg/ml final concentration. Hh protein alone caused approximately a 20-fold increase in 3H-thymidine incorporation, consistent with the known ability of Shh to stimulate proliferation of these cells. Non-Hh-protein-stimulated cells, including cells treated with control vehicle (DMSO), had very low levels of proliferation. […] At 5.0 μM, the p-cyanophenyl compound B caused 10.2-fold induction of 3H-thymidine incorporation. […] At 1.0, 0.3, or 0.1 μM, D caused 16-, 17-, or 13-fold induction, respectively, of 3H thymidine incorporation into the cells.

[2] = tested on: patched (ptc-lacZ β-galactosidase reporter); experiment: Ptc-lacZ reporter mice assay (X-gal staining of tissues); type: in vivo
Procedure: Mice with a β-galactosidase transgene (ptc-lacZ mice) under the regulatory control of the patched locus express the β-galactosidase protein in the same cells where the endogenous mouse patched gene is expressed. The β-galactosidase protein can thus be used as a faithful reporter of the expression of the endogenous patched gene.
Ptc-lacZ mice were divided into four treatment groups and were treated with the following compounds or combinations of compounds for four days, beginning on the first day after birth (dipal-Shh=dipalmitoylated Sonic hedgehog):
The vehicle for the agonist was 10% DMSO in PBS (pH 7.2). The agonist was injected from a 4.67 mM stock dissolved in the vehicle solution.
18 hours following the last injections, the mice were sacrificed and the following tissues were collected: skull, kidney, lung, scapula, skin and heart. All tissues were fixed in 0.2% glutaraldehyde, 5 mM EDTA (pH 8.0), 20 mM MgCl2, 100 mM Na2HPO4 for 30 minutes before staining in 1 mg/ml X-gal, 12.5 mM potassium ferrocyanide, 12.5 mM potassium ferricyanide, 2 mM MgCl2, 0.01% deoxycholate, 0.02% NP-40, and 100 mM Na2HPO4 for 30 hours. Tissues were judged for relative intensity and photographed.
FIG. 42: Ptc-lacZ mice were divided into two treatment groups and were treated with the following compounds for three days, beginning on the first day after birth:
The vehicle for the agonist was 10% DMSO in PBS (pH 7.2). The agonist was injected from a 1.0 mM stock dissolved in the vehicle solution.
Eighteen hours following the last injections, the mice were sacrificed and the forelimbs were collected and processed as described above.
In a third experiment, Ptc-lacZ mice were divided into five treatment groups and were treated with the following compounds for four days, beginning on the first day after birth:
The vehicle for the agonist was 10% DMSO in PBS (pH 7.2). The agonist was injected from stocks of 0.3, 0.1 and 0.03 mM dissolved in the vehicle solution.

[3] = tested on: diabetic neuropathy (nerve conduction, vasa nervorum, NGF); experiment: Streptozotocin (STZ) diabetic rat model of diabetic neuropathy; type: in vivo
Procedure: Diabetes was induced in male Wistar rats (Charles River, UK or Harlan, San Diego, USA) with an intraperitoneal injection (55 mg/kg) of streptozotocin (STZ; Sigma) given after an overnight fast. The drug was freshly dissolved in sterile saline immediately before injection. Three days later, tail vein blood glucose was measured by a strip-operated reflectance photometer and any STZ-treated rats with blood glucose <15 mmol/l were removed from the study. Rats were group-housed with free access to food and water in a 12 h light/dark cycle. At the end of each study, blood samples were collected from all rats, plasma extracted and plasma glucose levels measured by spectophotometric assay using a commercial kit (Sigma, St. Louis, Mo.). […] Motor nerve conduction velocity (MNCV) was measured from latencies of the compound M waves of the electromyogram in the hindlimb, and sensory nerve conduction velocity (SNCV) was measured from H reflex latencies in the same system. […] Stimulation of the nerve was performed at the sciatic notch and Achilles tendon and evoked electromyograms were recorded from the interosseus muscles of the foot. […] NGF was measured in extracts from segments of sciatic nerve by ELISA as described by P. Fernyhough et al. Human recombinant nerve growth factor replaces deficient neurotrophic support in the diabetic rat. […]

## CNC1CCC(N(Cc2ccc(OC)c(-c3ccc(C#N)cc3)c2)C(=O)c2sc3ccccc3c2Cl)CC1 (centres unmarked) [D]
[1]; 0.1 μM
  induction of 3H thymidine incorporation: 13 fold
[1]; 0.3 μM
  induction of 3H thymidine incorporation: 17 fold
[1]; 1.0 μM
  induction of 3H thymidine incorporation: 16 fold
[1]; absence of Hh protein treatment
  stimulation of 3H-thymidine incorporation: strongly stimulated 3H-thymidine incorporation
[2]; 0.1 mg/kg/injection 4X/day, four days
  upregulation of hedgehog pathway in forelimbs (β-galactosidase staining): very weak upregulation
[2]; 0.3 mg/kg/injection 4X/day, four days
  upregulation of hedgehog pathway in forelimbs (β-galactosidase staining): greater than that seen with injections of Hh protein at 10 mg/kg/injection
[2]; 0.9 mg/kg/injection 4X/day, four days
  upregulation of hedgehog pathway in forelimbs (β-galactosidase staining): highest levels of upregulation; also recorded: greater than that seen with injections of Hh protein at 10 mg/kg/injection
[2]; 4 mg/kg/injection 4X/day, three days, absence of dipal-Shh
  upregulation of hedgehog pathway in forelimbs (β-galactosidase staining): strong upregulation in the nerves, blood vessels, cartilage, and connective tissue; also recorded: greater than that seen with injections of dipal-Shh at 10 mg/kg/injection
[2]; 0.1-0.9 mg/kg/injection 4X/day
  dose dependence of hedgehog pathway upregulation in vivo: dose-responsive manner
[3]; laser Doppler perfusion imaging and BS-1 lectin fluorescent imaging
  blood flow to the damaged nerves (sciatic vasa nervorum): improved
[3]; rat STZ model
  levels of nerve growth factor (NGF) in the sciatic nerve: increased levels of nerve growth factor (NGF)
